The values below come from ChEMBL document CHEMBL3232739, “Discovery of a potent and dissociated non-steroidal glucocorticoid receptor agonist containing an alkyl carbinol pharmacophore” (Bioorg Med Chem Lett, 2014).

Converted amounts (≈) assume the structure as drawn. Some results are limits rather than exact numbers.

Data set [1] can be described thus: Equilibrium solubility of the compound at pH 2.2. In kind it is physicochemical. To be noted: buffer.
Data set [2] deals with Mus musculus. The data set can be described thus: Toxicity in B10.RIII mouse assessed as body fate level in serum at 30 mg/kg, po qd for 5 weeks relative to control. The arrangement: dose 30 mg/kg, route oral. To be noted: in vivo, 840 h. In kind it is organism-based.
The target of data set [3] is T1, Mineralocorticoid receptor (Homo sapiens, UniProt P08235).
T1 sequence (P08235 whole entry): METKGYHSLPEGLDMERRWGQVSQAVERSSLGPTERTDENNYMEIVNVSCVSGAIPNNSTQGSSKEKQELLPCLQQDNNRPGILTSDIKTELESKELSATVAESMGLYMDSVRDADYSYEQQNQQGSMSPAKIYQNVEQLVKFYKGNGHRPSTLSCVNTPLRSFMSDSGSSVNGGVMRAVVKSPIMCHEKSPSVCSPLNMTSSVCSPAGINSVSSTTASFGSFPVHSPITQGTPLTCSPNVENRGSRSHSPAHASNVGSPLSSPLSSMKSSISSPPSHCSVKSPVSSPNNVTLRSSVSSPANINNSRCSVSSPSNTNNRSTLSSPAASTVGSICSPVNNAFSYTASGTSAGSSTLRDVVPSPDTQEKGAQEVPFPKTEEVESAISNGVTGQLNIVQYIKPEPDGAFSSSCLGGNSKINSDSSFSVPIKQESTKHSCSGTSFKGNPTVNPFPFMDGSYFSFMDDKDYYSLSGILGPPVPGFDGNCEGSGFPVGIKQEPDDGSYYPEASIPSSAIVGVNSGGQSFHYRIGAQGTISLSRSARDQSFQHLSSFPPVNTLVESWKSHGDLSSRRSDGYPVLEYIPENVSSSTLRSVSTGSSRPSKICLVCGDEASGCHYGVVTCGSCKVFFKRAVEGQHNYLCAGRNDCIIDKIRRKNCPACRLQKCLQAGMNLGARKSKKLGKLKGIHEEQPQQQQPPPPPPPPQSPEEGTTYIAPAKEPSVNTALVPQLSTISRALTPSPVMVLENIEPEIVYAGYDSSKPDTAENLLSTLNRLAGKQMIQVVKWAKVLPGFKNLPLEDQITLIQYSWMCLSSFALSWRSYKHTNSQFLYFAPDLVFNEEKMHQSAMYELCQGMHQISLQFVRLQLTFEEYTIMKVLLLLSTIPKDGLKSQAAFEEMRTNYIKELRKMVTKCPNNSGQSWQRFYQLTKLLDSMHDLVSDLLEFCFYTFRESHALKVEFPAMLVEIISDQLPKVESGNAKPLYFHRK
Kind of data set: Displacement of TAMRA-labeled dexamethasone from mineralocorticoid receptor (unknown origin) by fluorescence polarization assay.

A short description of data set [4]: Oral bioavailability in Sprague-Dawley rat at 30 mg/kg. In kind it is ADME, organism-based. To be noted: in vivo.
Data set [5] deals with Mus musculus. The data set can be described thus: Toxicity in po dosed B10.RIII mouse assessed as insulin level in serum administered po qd for 5 weeks relative to control. It counts as organism-based. To be noted: in vivo, 840 h.
The test system of data set [6] is Mus musculus. The data set can be described thus: Toxicity in B10.RIII mouse assessed as insulin level in serum at 100 mg/kg, po qd for 5 weeks relative to control. In kind it is organism-based. Also noted: dose 100 mg/kg, route oral. To be noted: in vivo, 840 h.
Data set [7] can be described thus: Efflux ratio of permeability from basolateral to apical side over apical to basolateral side in human Caco2 cells. In kind it is ADME, cell-based. To be noted: Caco-2.
The subject of data set [8] is Mus musculus. Kind of data set: Toxicity in B10.RIII mouse assessed as body fate level in serum at 100 mg/kg, po qd for 5 weeks relative to control. In kind it is organism-based. The arrangement: dose 100 mg/kg, route oral. To be noted: in vivo, 840 h.
Data set [9] addresses T2, Glucocorticoid receptor (Homo sapiens, UniProt P04150).
T2 sequence (P04150 whole entry): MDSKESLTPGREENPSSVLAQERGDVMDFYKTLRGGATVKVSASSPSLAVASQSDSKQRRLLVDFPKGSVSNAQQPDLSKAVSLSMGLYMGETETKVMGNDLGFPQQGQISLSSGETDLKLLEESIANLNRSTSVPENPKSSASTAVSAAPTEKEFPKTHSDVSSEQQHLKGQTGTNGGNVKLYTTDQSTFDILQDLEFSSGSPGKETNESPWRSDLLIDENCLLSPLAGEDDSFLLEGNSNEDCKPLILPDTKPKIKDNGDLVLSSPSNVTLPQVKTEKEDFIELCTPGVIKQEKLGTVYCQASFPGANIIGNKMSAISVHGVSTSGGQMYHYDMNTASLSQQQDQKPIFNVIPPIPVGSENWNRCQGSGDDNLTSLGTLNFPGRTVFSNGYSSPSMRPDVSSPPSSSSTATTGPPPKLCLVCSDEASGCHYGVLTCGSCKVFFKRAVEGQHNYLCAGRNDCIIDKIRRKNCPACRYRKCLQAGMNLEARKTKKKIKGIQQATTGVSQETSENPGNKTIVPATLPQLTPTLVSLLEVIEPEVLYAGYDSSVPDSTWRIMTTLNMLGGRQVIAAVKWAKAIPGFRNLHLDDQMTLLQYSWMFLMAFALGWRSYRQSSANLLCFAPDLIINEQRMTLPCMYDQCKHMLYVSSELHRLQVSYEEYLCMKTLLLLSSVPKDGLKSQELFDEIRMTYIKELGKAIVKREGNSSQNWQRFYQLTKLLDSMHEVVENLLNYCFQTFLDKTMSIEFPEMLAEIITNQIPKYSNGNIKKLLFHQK
Description: Transactivation of glucocorticoid receptor in human HeLa cells harboring MMTV promoter by luciferase reporter gene assay

The nature of data set [10]: Volume of distribution at steady state in Sprague-Dawley rat at 2 mg/kg, iv. In kind it is ADME, organism-based. The arrangement: dose 2 mg/kg, route intravenous. To be noted: in vivo, read-out: Vdss.
Data set [11] can be described thus: Permeability across apical to basolateral side in human Caco2 cells. To be noted: Caco-2, read-out: permeability. In kind it is ADME, cell-based.
The subject of data set [12] is Mus musculus. Kind of data set: Toxicity in B10.RIII mouse assessed as triglyceride level in serum at 30 mg/kg, po qd for 5 weeks relative to control. In kind it is organism-based. The arrangement: dose 30 mg/kg, route oral. To be noted: in vivo, 840 h.
For data set [13], the species on record is Homo sapiens. Kind of data set: Selectivity ratio of IC50 for mineralocorticoid receptor (unknown origin) to IC50 for glucocorticoid receptor (unknown origin).
For data set [14], the species on record is Homo sapiens. The data set can be described thus: Selectivity ratio of IC50 for progesterone receptor (unknown origin) to IC50 for glucocorticoid receptor (unknown origin).
Data set [15] deals with Mus musculus. The data set can be described thus: Toxicity in B10.RIII mouse assessed as triglyceride level in serum at 100 mg/kg, po qd for 5 weeks relative to control. It counts as organism-based. Also noted: dose 100 mg/kg, route oral. To be noted: in vivo, 840 h.

Turning to `Cc1ccc(F)cc1C(C)(C)C[C@@](O)(Cc1cc2cnccc2[nH]1)C(C)(C)C`, in data set [1], the thermodynamic solubility is 840 µg/mL (≈ 2200 µM). Moreover, the Activity in data set [2] was -7%; in [5], “Dose-dependent effect”; in [6], 224%; in data set [8] it was -3%; in data set [12], 29%; in [15], 113%. In addition, the IC50 in [3] is 420 nM; in data set [9] it was over 2000 nM. Also, the bioavailability in [4] was 64%. The efflux ratio in data set [7] amounted to 1.3. The Vd in data set [10] is 4 L/kg. Also, the Papp A→B in data set [11] was determined as 13.4 ×10⁻⁶ cm/s. In addition, the Ratio IC50 in [13] and in data set [14] was over 100 in each case.
